According to PMC12048447, “PANTAX: a phase Ib clinical trial of the efflux pump inhibitor SCO-101 in combination with gemcitabine and nab-paclitaxel in non-resectable or metastatic pancreatic cancer” (Investigational New Drugs, 2025):

What was measured:
[1] = target: T1, ABCB1 (MDR1) human ABC transporter (Homo sapiens, UniProt P08183); experiment: ABCB1 (MDR1) vesicular uptake inhibition in inside-out membrane vesicles; assay type: biochemical; details: vesicular uptake of probe substrate, SCO-101 1.2-300 µM, with and without ATP; read-out: IC50, inhibition of MDR1/ABCB1 efflux transporter
T1 construct: purchased SOLVO Biotechnology
Description: Analysis of SCO-101 ABCB1 (MDR1) efflux transporter inhibition was evaluated by measuring the vesicular uptake of a probe substrate into inside-out membrane vesicles expressing ABCB1 (MDR1) human ABC transporter in the absence and presence of SCO-101 (1.2 –300 μM) with and without ATP. Transporter inhibition was observed as reduced level of vesicular uptake of the probe substrate in the presence of ATP. ABCB1 (MDR1) assay was conducted with reagents from PredivezTM VT Reagent Kit for MDR1/P-gp (SOLVO Biotechnology). Assays were conducted as per the manufacturer’s recommendation. The inhibition was evaluated by measuring the vesicular uptake of a probe substrate into inside-out membrane vesicles. Assays were conducted with or without ATP and in the absence and presence of SCO-101 at the indicated concentrations (1.2 –300μM).

wild-type PANC-1 cells = experiment: Crystal violet combination assay in wild-type PANC-1 cells; assay type: cell-based, human; details: 120 h drug incubation
Description: For the crystal violet assay, cells were seeded into 6-well plates at a density of 40,000 cells/well or into 48-wells with 4000 cells/well. One day after seeding, the cells were experimentally treated. Control conditions consisted of either growth medium (‘untreated’) or DMSO diluted in growth medium. All treatments were performed in triplicates. The cells were then kept in the CO2 incubator at 37 °C until staining with crystal violet dye for 10mins and let to dry overnight. The following day crystal violet dye was dissolved using 20% acetic acid and absorbance was measured at 570 nm.
Experiments with 4 different concentrations of either SCO-101 or paclitaxel and their combinations were applied to test for synergy among these two compounds in both the PANC-1 parental and -Paclitaxel resistant cells. […] The SRPK1 inhibitor SPHINX31 was tested at 0.1; 0.5; 1 and 5 µM. The SRPK1 inhibitor SRPIN was tested at 1; 5; 10 and 50 µM. Both inhibitors were tested in combination with 5, 10, 15 and 20 nM Paclitaxel.
A) the resistant PANC-1-Pac and B) the sensitive parental PANC-1 cell lines. Cells were either 1) untreated, 2) incubated with 30µM SCO-101, 3) 40µM SCO-101, 4) 4nM paclitaxel, 5) 30µM SCO-101 + 4nM paclitaxel or 6) 40µM SCO-101 + 4nM paclitaxel. Drug incubation for 120 hours was followed by staining with crystal violet.

T1 sequence (P08183 whole entry): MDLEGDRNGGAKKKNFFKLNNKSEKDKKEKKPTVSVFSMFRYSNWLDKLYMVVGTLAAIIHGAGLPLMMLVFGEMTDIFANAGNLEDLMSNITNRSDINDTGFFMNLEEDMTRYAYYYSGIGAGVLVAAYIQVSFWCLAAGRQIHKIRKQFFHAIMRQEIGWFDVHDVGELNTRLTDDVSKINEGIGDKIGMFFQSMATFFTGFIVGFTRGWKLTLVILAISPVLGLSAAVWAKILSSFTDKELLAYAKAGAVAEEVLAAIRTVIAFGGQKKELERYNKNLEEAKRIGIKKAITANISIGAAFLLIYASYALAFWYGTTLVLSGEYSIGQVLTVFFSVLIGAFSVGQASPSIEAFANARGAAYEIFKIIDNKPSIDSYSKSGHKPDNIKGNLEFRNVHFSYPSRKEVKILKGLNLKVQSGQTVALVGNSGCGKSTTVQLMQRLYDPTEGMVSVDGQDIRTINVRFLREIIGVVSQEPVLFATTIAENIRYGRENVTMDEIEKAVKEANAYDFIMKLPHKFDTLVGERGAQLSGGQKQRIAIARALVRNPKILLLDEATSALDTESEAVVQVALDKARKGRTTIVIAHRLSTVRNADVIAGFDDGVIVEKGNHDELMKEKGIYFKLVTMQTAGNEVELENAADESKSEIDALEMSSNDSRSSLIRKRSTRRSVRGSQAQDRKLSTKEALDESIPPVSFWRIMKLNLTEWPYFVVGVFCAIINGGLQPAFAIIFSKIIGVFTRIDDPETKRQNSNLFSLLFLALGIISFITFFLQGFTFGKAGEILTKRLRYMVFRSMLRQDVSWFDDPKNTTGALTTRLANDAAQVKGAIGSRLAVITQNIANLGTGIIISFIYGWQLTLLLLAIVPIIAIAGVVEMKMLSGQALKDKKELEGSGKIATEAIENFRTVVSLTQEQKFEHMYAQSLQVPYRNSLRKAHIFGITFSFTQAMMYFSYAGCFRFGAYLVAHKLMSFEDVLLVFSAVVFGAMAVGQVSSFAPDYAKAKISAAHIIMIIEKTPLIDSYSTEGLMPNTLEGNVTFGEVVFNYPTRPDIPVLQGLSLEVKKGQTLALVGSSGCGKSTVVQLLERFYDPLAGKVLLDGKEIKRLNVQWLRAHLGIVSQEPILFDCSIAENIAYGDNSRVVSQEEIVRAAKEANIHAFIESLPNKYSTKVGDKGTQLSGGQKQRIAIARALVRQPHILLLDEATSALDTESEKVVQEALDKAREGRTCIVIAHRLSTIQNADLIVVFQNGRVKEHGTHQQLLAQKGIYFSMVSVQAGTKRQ

With `O=C(Nc1cc(C(F)(F)F)cc(C(F)(F)F)c1)Nc1ccc(Br)cc1-c1nnn[nH]1` [SCO-101] the IC50 [1] was 16.1 µM and the “combination effect of SCO-101 and paclitaxel” value (wild-type PANC-1 cells) was “no combination effect”.
